Measurements as given in US20200009173A1, “TRIAZOLE-CONTAINING MACROLIDES AND OPHTHALMIC USES THEREFOR” (Tetard, Inc., priority 2017, published 2020).
In brackets after ≈: the same amount, converted by molar mass. Read-outs that look alike come from different tables or passages of the source.

Assays:
CA-MRSA = experiment: MIC, CA-MRSA; format: cell-based, Staphylococcus aureus; settings: N = 30
Mycoplasma hominis = experiment: MIC, Mycoplasma hominis; format: cell-based; settings: N = 13
[1] = tested on: phagocytized L. pneumophila; format: cell-based
Legionella pneumophila = experiment: microbe, parasite or virus in culture; format: cell-based
Ureaplasma urealyticum = experiment: MIC, Ureaplasma urealyticum; format: cell-based; settings: N = 10
[2] = speed of uptake and ultimate tissue concentration
S. pneumoniae = experiment: MICs of solithromycin and comparator drugs, S. pneumoniae (30 species); format: cell-based
Text: (§1) EXAMPLE. The formulations described herein show overall higher potency against ocular pathogens than commercial standards.
(§2) MICs (μg/ml) of Solithromycin and Comparator Drugs against Bacterial Species

[3] = Protein binding in plasma; format: in vitro ADME
Streptococcus agalactiae = experiment: MIC, Streptococcus agalactiae; format: cell-based; settings: N = 535
CXCL8 = CXCL8 (IL-8) production in LPS-stimulated PMA-differentiated U937 cells (ELISA); format: cell-based, human
Description: (§3) EXAMPLE. […] Cells. The human monocytic cell line U937 was obtained from the American Type Culture Collection (ATCC, Rockville, Md.). PBMCs from COPD patients were obtained from Brompton hospital and separated by AccuSPIN (Sigma-Aldrich). […] U937 cells were differentiated into adherent macrophage-like morphology by exposure to PMA (50 ng/ml) for 48 h in complete growth medium. Cell viability was assessed microscopically by trypan blue staining. Cell toxicity was determined by MTT assay as needed. This study was approved by the ethics committee of the Royal Brompton Hospitals, and all subjects gave written informed consent. Cytokine ELISA. TNFα and IL-8 concentrations in the supernatant of cell cultures were determined by sandwich ELISA according to the manufacturer's instructions (R&D Systems Europe, Abingdon, UK). Statistical analysis. The results were expressed as the mean±SEM. Comparisons of data in two groups were performed using the Student's t test or the Wilcoxon signed rank test. Multiple comparisons were made by one-way ANOVA with post hoc test (Dunnett's) as appropriate. The difference was considered significant at p<0.05. […] Anti-inflammatory effects of solithromycin in U937 cells.

[4] = tested on: Viridans group streptococci; experiment: MIC, Viridans group streptococci; format: cell-based; settings: N = 51
Streptococcus pyogenes = experiment: MIC, Streptococcus pyogenes; format: cell-based
P. Acnes = experiment: MICs of solithromycin and comparator drugs against P. acnes; format: cell-based
Text: EXAMPLE. The formulations described herein show overall higher potency against ocular pathogens than commercial standards. MICs (μg/ml) of Solithromycin and Comparator Drugs against P. Acnes (51 Species)

S. epidermidis = experiment: MICs of solithromycin and comparator drugs, S. epidermidis (30 species); format: cell-based
Text: as §1, §2

Streptococcus pneumoniae = experiment: MIC, Streptococcus pneumoniae (150 strains); format: cell-based
Mycoplasma pneumoniae = experiment: MIC, Mycoplasma pneumoniae (38 strains); format: cell-based
[5] = tested on: Haemophilus parainfluenzae; experiment: MIC, Haemophilus parainfluenzae; format: cell-based; settings: N = 11
TNFα = TNFα production in LPS-stimulated PMA-differentiated U937 cells (ELISA); format: cell-based, human
Description: as §3

Chlamydia trachomatis = experiment: MIC, Chlamydia trachomatis; format: cell-based; settings: N = 10
[6] = Cutibacterium acnes, 51 species

## CC[C@H]1OC(=O)[C@@](C)(F)C(=O)[C@H](C)[C@@H](O[C@@H]2O[C@H](C)C[C@H](N(C)C)[C@H]2O)[C@](C)(OC)C[C@@H](C)C(=O)[C@H](C)[C@H]2N(CCCCn3cc(-c4cccc(N)c4)nn3)C(=O)O[C@]12C [CEM-101, solithromycin]
CA-MRSA
  MIC Range: 60 to 120 ng/mL
CA-MRSA; Staphylococcus aureus, MRSA
  MIC50: 120 ng/mL (≈ 142 nM)
  MIC90: 120 ng/mL (≈ 142 nM)
Mycoplasma hominis; Metamycoplasma hominis
  MIC50: 4 ng/mL (≈ 4.73 nM)
  MIC90: 8 ng/mL (≈ 9.47 nM)
Mycoplasma hominis
  MIC Range: 2 to 8 ng/mL
[1]
  potency relative to azithromycin: 100 fold
Legionella pneumophila; Legionella pneumophila
  MIC50: ≤ 15 ng/mL
  MIC90: ≤ 15 ng/mL
Legionella pneumophila; N = 30
  MIC90: ≤15 ng/mL
  MIC Range: ≤15 ng/mL
Ureaplasma urealyticum
  MIC Range: 4 to 63 ng/mL
Ureaplasma urealyticum; Ureaplasma urealyticum
  MIC50: 8 ng/mL (≈ 9.47 nM)
  MIC90: 31 ng/mL (≈ 36.7 nM)
[2]
  tissue distribution relative to AZI: 10 fold
S. pneumoniae
  I (intermediate susceptibility): 0%
  MIC Range: ≤0.001-0.25 ^ μg/ml
  NS (not susceptible): 0%
  S (susceptible): 100%
S. pneumoniae; Streptococcus pneumoniae
  MIC50: 2 ng/mL (≈ 2.37 nM)
  MIC90: 120 ng/mL (≈ 142 nM)
[3]
  fraction unbound: 0.14
Streptococcus agalactiae
  MIC Range: ≤0.03-0.5 ^ μg/mL
Streptococcus agalactiae; Streptococcus agalactiae
  MIC50: ≤ 30 ng/mL
  MIC90: ≤ 30 ng/mL
CXCL8; Homo sapiens, U-937, LPS, PMA-differentiated U937 cells, read-out: IC50 on CXCL8 release
  IC50: 78.2 ± 9.5 µM
CXCL8; at 100 μM
  effect on CXCL8 production: significantly inhibited
[4]
  MIC50: ≤ 8 ng/mL
  MIC90: 60 ng/mL (≈ 71 nM)
  MIC Range: ≤0.008-0.12 ^ μg/mL
Streptococcus pyogenes; N = 407 (CEM-101)
  MIC Range: ≤0.03-0.5 ^ μg/mL
Streptococcus pyogenes; Streptococcus pyogenes
  MIC50: ≤ 30 ng/mL
Streptococcus pyogenes; Streptococcus pyogenes, 100 strains
  MIC90: 30 ng/mL (≈ 35.5 nM)
Streptococcus pyogenes; Streptococcus pyogenes, N = 407 (CEM-101), N = 100 (azithromycin)
  MIC90: ≤ 30 ng/mL
P. Acnes
  MIC Range: ≤2 to 250 ng/mL
P. Acnes; [6]
  MIC50: 15 ng/mL (≈ 17.8 nM)
  MIC90: 60 ng/mL (≈ 71 nM)
S. epidermidis
  I (intermediate susceptibility): 3%
  NS (not susceptible): 17%
  S (susceptible): 80%
S. epidermidis; Staphylococcus epidermidis
  MIC50: 15 ng/mL (≈ 17.8 nM)
  MIC90: 32000 ng/mL (≈ 37900 nM)
Streptococcus pneumoniae; N = 150
  MIC90: 250 ng/mL (≈ 296 nM)
  MIC Range: ≤8 to 500 ng/mL
Streptococcus pneumoniae; Streptococcus pneumoniae, 150 strains, read-out: MIC90
  MIC90: 250 ng/mL (≈ 296 nM)
Streptococcus pneumoniae; Streptococcus pneumoniae, N = 150
  MIC50: 15 ng/mL (≈ 17.8 nM)
Mycoplasma pneumoniae; Mycoplasma, 38 strains, read-out: MIC90
  MIC90: 0.125 ng/mL (≈ 0.148 nM)
Mycoplasma pneumoniae; Mycoplasma, N = 38
  MIC50: 0.032 ng/mL (≈ 0.0379 nM)
Mycoplasma pneumoniae; N = 38
  MIC90: 0.125 ng/mL (≈ 0.148 nM)
  MIC Range: ≤6.3e-05 to 500 ng/mL
[5]; Haemophilus parainfluenzae
  MIC50: 2000 ng/mL (≈ 2370 nM)
  MIC90: 2000 ng/mL (≈ 2370 nM)
[5]
  MIC Range: 1000 to 2000 ng/mL
TNFα; Homo sapiens, U-937, LPS, PMA-differentiated U937 cells, read-out: IC50 on TNFα release
  IC50: 41.6 ± 1.9 µM
TNFα; at 100 μM
  effect on TNFα production: significantly inhibited
Chlamydia trachomatis; Chlamydia trachomatis
  MIC50: 250 ng/mL (≈ 296 nM)
  MIC90: 250 ng/mL (≈ 296 nM)
Chlamydia trachomatis
  MIC Range: 125 to 500 ng/mL
